1 substance from patent US20170003277A1 (priority 2015, published 2017) can be followed below.

Data set [1] has as its system mouse splenocytes. Put plainly: Microarray gene expression of splenocytes from Copaxone- or Polimunol-immunized mice activated ex vivo with Copaxone or Polimunol. Type of data set: cell-based. The procedure:
All experimental procedures conformed to accepted ethical standards for use of animals in research and were in accordance with Committee for the Care and Use of Experimental Animals guidelines and approved by the Teva Institutional Animal Care and Use Committee. For these experiments, 8- to 12-week-old female (Balb/c X SJL) F1 mice (Janvier, France) were purchased. Mice were kept at 21±3° C.; the relative humidity was 30-70%, the light/dark cycle was 12/12 h. Animals were maintained on a standard rodent pellet diet and sterile filtered tap water available ad libitum.
To stimulate induction of GA-reactive T cells, twelve mice were injected with 100 μL of a 2.5 mg/mL solution of GA reference standard (GA-RS) in phosphate-buffered saline (250 μg GARS per mouse). GA-RS (Teva) is a selected GA drug substance batch defined as the standard batch and used as a reference in quality control release tests of all Copaxone® batches. Another group of twelve mice were injected with 100 μL of a 2.5 mg/mL solution of Polimunol in phosphate-buffered saline (250 μg Polimunol per mouse). Polimunol is a proposed generic manufactured a company other than Teva. […] A single cell suspension was prepared. After red blood cells lysis, splenocytes from the same immunization group were pulled and resuspended to a final concentration of 10×10^6 cells/mL in defined cell culture media (DCCM1) (Biological Industries, Beit Haemek, Israel) (96.7% v/v) enriched with L-glutamine 2 mM (1% v/v), MEM Non-Essential Amino Acids 2 mM (1% v/v), sodium pyruvate 1 mM (1% v/v), antibiotic/antimycotic solution (0.2% v/v) and 2-mercaptoethanol 50 mM (0.1% v/v).
Splenocytes were treated with activator samples diluted in medium (125 μL per well of 80 μg/mL solutions, final concentration in the well: 40 μg/mL) of: i) 3 different batches of GA drug product manufactured by Teva ii) one batch of proposed generic (Polimunol). Polimunol is a product marketed as generic GA and manufactured by a company other than Teva (i.e. Synthon). […] Splenocytes (125 μL 10×10^6 SPL cell/mL suspension) were added to the activator solutions. Each activator sample was loaded in two different plates. One for the cells from mice immunized with GA and one for cells from mice immunized with proposed generic. Plates were incubated for 24 h at 37° C. Cells were collected from the wells and were centrifuged at 300 g for 5 minutes. Supernatants were aspirated and cell pellets were resuspended in RLT buffer (from RNeasy mini kit of Qiagen, Cat #74106) for cell lysis. The cell lysates were centrifuged and supernatants were collected and frozen at −70° C. Samples were sent for further processing.
For additional detail on experimental methods used in mouse studies, please refer to publications [Bakshi et al; Towfic et al]. Note that in this study, mice were immunized with either Copaxone® or Polimunol, and subsequently splenocytes were isolated and treated ex vivo with Copaxone® or Polimunol. RNA was extracted and expression profiled across the entire genome using the Affymetrix Mouse Genome 430 2 chip. Three lots of Copaxone®, and one lot of Polimunol were comparatively tested in six replicates each.
Outlier samples were identified using the R package ArrayQCMetrics and excluded from further data processing steps. A sample was considered an outlier if it failed more than half of the included tests either before or after RMA normalization. Data were RMA normalized using the Affy R package.
Correction for batch variation was performed using ComBat as described above (THP-1 methods). Date of microarray experiment was used as batch, and the combination of treatment and immunization was used as covariate.
Differentially expressed probesets were identified across conditions using linear models for microarray data (LIMMA; Smyth, G. K. (2004)), a standard R Bioconductor package. Linear models and empirical Bayes methods for assessing differential expression in microarray experiments. […]

For data set [2], the system named is mouse splenocytes. Put plainly: Microarray gene expression of ex vivo activated splenocytes from GA-immunized mice (Copaxone, Natco, Escadra, Probioglat, Hangzhou, TV-5010). In kind it is cell-based. An excerpt: After 3 days, the mice were sacrificed and cells from their spleens (splenocytes) were isolated because such cells are representative of, and commonly utilized as a gold standard to study the immune system.
Given the robustness of the model established in our first mouse splenocyte study, we sought to expand the scope of the investigation using the exact same study design, but with an expanded set of treatments (FIG. 1). In addition to comparing Copaxone® to a purported foreign generic version, we also sought to compare purported generics from various manufacturers to each other.
Extraction of total RNA from activated splenocytes was extracted using PerfectPure RNA Cultures CEKK kit 50 (5Prime GmbH, Hamburg, Germany) and following the manufacturer's instructions. RNA quality was assessed using the absorbance ratio at 260/280 nm and gel electrophoresis (Experion, Bio-Rad, Hercules, Calif., USA). Total RNA extracted from samples was hybridized to Illumina Mouse WG-6V2 microarray chips containing more than 45,200 transcripts.
Samples were randomized on the chips to avoid batch effects. Illumina's BeadStudio software was utilized for image processing, quantification of signal intensity per bead, and background signal correction. Multiple probes were analyzed for a given gene were averaged and batch correction was conducted using Partek. […]

Data set [3] can be described thus: Long-term animal toxicity studies of TV-5010. Also on record: species or system rats and monkeys. To be noted: in vivo.
The test system of data set [4] is THP-1 human monocyte cell line. Put plainly: Microarray gene expression in THP-1 cells, Polimunol vs Copaxone, 6 hours (Example 9). In kind it is cell-based. An excerpt: Based on previous power calculations (using the R package ssize.fdr), to detect differentially-expressed genes with a fold-change between treatments of as low as 1.3 with 80% power the experiment was designed to include six replicates of each condition. The order of sample processing was randomized with respect to treatment in order to avoid creating confounding batch effects.
RNA was extracted and expression profiled genome-wide using the Affymetrix U133 Plus 2.0 chip. Three batches of Copaxone® and one batch of Polimunol were comparatively tested in six replicates each. RNA processing was performed by Expression Analysis (NC, USA).
Differentially-expressed probesets were identified across conditions using linear models for microarray data (LIMMA). For comparing Copaxone® (“GA”) and purported generic, comparisons were corrected for mannitol control (i.e., [GA vs mannitol] was compared to [purported generic vs mannitol]). Probesets were filtered by calls of presence on the chip for the relevant samples in the comparison (to be considered present at a given timepoint, a probeset was required to have on average a call of present or marginal across the relevant samples at that timepoint). Probesets were mapped to genes using the U133 Plus 2.0 chip annotation from Affymetrix.

For the substance glatiramer acetate [Copaxone®], the Foxp3 expression entry in the data set with mouse splenocytes [1] (Copaxone immunization, adj p<3.4e-23) is listed as “upregulated”. Also, the Gpr83 expression result in the data set with mouse splenocytes [1] (Copaxone immunization, two probesets, adj p<4.2e-33 and 9.0e-31) is on record as “upregulated”. Further, in the data set on mouse splenocytes [1] (Copaxone-immunized mice), the “Probesets downregulated by Copaxone relative to medium” value is listed as 8,305; the “Probesets downregulated by Copaxone relative to medium, |FC|≧2” value is recorded as 485; the “Probesets significantly modulated by Copaxone relative to medium” value is 16,647; the “Probesets upregulated by Copaxone relative to medium” value is 8,342. The “Probesets upregulated by Copaxone relative to medium, |FC|≧2” value with mouse splenocytes [1] (Copaxone-immunized mice) is on record as 411. Further, the “IL1B expression, Copaxone compared with Natco purported generic” value with mouse splenocytes [2] (first mouse splenocyte study, adjusted p=0.043 by ANOVA) is “significantly lower IL1B expression”. Further, in the data set on mouse splenocytes [2] (mouse splenocytes), the “IL1B expression relative to medium” value was “extremely effective in downregulating IL1B”. Moreover, the “Toxicity in long-term animal studies” value in data set [3] is on record as “never seen”. Also, the “IL10RA expression relative to mannitol” value in data set [4] (adjusted p<2.8e-14) is given as “significantly upregulated”. The “IL1RN expression relative to mannitol” value in data set [4] (adjusted p<2.8e-10) is “significantly upregulated”. Also, in data set [4] (probeset called absent, p<0.029), the “IL10 expression relative to mannitol” value is given as “nominally upregulated”.
